Measured values as given in ChEMBL document CHEMBL5543136, “Discovery of Novel Heterotricyclic Compounds as DNA-Dependent Protein Kinase (DNA-PK) Inhibitors with Enhanced Chemosensitivity, Oral Bioavailability, and the Ability to Potentiate Cancer Immunotherapy” (J Med Chem, 2024).
Active and inactive are the calls of the source. The calls are words filed in the database; no cut-off is given here.

Experiments:
[1] = test system: CT26; experiment: Antiproliferative activity against mouse CT26 cells assessed as reduction in cell viability incubated for 48 hrs by CCK-8 assay; assay type: functional, cell-based; details: CT26, 48 h
[2] = biological target: DNA-dependent protein kinase catalytic subunit (Homo sapiens, UniProt P78527); experiment: Inhibition of human full-length DNA-PK using EPPLSQEAFADLWKK as substrate incubated for 60 mins in presence of ATP by ADP-Glo kinase assay
Sequence of DNA-dependent protein kinase catalytic subunit (P78527 whole entry): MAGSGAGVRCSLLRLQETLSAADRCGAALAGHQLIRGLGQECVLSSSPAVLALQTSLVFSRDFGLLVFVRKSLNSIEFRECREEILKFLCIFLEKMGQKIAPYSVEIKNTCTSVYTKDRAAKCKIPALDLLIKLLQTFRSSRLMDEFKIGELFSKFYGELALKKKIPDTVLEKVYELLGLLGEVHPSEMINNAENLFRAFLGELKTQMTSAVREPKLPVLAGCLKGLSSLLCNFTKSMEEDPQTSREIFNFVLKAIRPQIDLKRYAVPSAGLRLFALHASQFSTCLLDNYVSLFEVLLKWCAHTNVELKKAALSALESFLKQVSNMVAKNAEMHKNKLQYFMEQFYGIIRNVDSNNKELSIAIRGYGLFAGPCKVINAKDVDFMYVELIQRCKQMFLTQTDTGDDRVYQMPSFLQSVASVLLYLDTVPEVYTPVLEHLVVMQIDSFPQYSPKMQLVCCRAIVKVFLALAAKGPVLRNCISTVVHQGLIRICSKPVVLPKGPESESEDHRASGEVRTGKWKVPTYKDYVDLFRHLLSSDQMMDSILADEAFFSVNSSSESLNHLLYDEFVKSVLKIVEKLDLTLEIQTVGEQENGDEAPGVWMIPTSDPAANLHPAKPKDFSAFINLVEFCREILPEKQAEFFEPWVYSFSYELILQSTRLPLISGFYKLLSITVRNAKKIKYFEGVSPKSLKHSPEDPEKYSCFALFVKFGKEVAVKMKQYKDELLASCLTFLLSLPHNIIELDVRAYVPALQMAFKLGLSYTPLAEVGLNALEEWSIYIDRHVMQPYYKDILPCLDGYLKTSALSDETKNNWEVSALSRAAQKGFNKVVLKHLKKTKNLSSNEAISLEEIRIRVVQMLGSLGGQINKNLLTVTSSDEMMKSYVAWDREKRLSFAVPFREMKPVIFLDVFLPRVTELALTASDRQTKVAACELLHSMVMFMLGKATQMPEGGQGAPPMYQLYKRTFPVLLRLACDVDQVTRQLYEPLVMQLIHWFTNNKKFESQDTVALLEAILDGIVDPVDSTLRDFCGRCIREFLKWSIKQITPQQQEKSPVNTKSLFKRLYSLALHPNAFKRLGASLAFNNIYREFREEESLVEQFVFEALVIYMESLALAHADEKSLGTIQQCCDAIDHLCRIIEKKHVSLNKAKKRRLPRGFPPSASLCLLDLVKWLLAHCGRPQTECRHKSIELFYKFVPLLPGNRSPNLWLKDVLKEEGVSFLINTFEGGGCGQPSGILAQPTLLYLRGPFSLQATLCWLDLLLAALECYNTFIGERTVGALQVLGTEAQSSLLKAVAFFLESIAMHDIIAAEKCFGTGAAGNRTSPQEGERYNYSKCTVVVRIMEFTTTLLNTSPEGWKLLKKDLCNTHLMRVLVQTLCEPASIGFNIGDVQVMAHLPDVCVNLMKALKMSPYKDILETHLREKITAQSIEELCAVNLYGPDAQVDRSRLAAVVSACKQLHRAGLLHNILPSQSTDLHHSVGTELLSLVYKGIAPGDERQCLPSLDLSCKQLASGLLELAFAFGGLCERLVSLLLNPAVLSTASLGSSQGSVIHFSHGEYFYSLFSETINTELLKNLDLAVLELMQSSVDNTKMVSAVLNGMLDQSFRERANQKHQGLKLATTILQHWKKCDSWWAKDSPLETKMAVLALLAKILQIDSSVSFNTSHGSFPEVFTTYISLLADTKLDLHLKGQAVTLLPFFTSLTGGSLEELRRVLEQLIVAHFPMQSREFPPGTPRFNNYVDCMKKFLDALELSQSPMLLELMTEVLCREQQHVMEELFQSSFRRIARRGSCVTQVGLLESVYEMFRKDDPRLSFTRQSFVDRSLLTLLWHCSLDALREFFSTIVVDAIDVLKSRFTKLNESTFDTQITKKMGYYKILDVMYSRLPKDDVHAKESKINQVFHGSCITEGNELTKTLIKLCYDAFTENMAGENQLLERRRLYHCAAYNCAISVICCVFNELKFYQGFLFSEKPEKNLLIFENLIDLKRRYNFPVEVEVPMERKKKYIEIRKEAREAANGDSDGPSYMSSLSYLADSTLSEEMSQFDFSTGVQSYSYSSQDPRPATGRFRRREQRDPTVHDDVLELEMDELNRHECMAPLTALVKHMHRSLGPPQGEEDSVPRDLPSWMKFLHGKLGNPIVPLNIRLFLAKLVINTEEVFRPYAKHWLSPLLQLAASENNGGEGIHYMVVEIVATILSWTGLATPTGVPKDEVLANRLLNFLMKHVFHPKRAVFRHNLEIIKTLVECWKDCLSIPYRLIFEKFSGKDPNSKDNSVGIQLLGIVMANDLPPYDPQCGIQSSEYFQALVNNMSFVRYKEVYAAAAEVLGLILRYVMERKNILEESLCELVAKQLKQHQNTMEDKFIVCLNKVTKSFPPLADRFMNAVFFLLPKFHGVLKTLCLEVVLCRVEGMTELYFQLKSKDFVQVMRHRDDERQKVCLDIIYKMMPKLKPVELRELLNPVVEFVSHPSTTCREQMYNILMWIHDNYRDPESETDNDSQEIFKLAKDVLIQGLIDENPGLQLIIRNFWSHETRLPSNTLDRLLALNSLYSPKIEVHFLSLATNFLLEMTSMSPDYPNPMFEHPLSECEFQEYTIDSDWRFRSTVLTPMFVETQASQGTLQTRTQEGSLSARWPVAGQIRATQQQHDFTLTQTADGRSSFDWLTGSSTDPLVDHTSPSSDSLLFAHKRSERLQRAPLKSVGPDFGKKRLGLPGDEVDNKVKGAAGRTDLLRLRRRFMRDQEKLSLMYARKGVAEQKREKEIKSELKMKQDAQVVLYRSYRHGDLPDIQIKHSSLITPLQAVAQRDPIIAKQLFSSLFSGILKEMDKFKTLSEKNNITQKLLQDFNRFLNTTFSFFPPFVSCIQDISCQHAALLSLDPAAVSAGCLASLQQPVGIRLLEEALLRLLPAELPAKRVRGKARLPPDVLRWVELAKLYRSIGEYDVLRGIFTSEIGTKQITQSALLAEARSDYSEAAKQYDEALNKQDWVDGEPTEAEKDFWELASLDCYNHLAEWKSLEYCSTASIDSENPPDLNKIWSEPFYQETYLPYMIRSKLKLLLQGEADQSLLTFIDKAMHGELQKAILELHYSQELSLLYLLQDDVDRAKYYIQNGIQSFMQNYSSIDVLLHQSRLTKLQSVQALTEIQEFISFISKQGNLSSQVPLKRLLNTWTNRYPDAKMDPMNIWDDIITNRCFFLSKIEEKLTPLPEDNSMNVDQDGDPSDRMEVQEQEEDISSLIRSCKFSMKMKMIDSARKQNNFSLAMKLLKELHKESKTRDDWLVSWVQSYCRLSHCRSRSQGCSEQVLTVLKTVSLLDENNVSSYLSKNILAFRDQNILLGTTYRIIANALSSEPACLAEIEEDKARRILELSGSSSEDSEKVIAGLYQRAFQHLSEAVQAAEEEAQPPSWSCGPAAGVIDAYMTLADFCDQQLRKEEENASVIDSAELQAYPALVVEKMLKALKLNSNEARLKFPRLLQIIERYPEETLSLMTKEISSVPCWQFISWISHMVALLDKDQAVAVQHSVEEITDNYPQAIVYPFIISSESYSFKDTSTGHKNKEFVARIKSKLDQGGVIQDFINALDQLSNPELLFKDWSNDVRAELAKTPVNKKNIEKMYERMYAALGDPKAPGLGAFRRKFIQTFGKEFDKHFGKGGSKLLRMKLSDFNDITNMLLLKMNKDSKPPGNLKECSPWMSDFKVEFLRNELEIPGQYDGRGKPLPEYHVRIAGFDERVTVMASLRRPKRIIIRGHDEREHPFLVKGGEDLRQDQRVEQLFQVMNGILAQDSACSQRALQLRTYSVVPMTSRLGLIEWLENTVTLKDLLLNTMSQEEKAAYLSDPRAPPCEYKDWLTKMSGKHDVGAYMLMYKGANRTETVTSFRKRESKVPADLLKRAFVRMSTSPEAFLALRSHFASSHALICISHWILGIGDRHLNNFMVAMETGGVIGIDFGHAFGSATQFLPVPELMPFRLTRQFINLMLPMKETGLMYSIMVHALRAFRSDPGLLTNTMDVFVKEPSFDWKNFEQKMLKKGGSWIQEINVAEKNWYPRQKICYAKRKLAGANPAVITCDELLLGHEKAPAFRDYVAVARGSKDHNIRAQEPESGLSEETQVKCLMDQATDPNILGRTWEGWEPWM

[3] = test system: Jurkat; experiment: Antiproliferative activity against human Jurkat cells assessed as reduction in cell viability incubated for 48 hrs by CCK-8 assay; assay type: functional, cell-based
[4] = test system: B16-F10; experiment: Antiproliferative activity against mouse B16-F10 cells assessed as reduction in cell viability incubated for 48 hrs by CCK-8 assay; assay type: functional, cell-based; details: B16-F10, 48 h
[5] = test system: B16-F10; experiment: Synergistic antiproliferative activity against mouse B16-F10 cells assessed as reduction in cell viability incubated for 48 hrs in presence of doxorubicin by CCK-8 assay; assay type: functional, cell-based; details: B16-F10, 48 h
[6] = test system: Jurkat; experiment: Synergistic antiproliferative activity against human Jurkat cells assessed as reduction in cell viability incubated for 48 hrs in presence of doxorubicin by CCK-8 assay; assay type: functional, cell-based
[7] = test system: CT26; experiment: Synergistic antiproliferative activity against mouse CT26 cells assessed as reduction in cell viability incubated for 48 hrs in presence of doxorubicin by CCK-8 assay; assay type: functional, cell-based; details: CT26, 48 h
[8] = test system: B16-F10; experiment: Antitumor activity against mouse B16-F10 cells implanted in C57BL/6 mouse assessed as tumor growth inhibition at 50 mg/kg, ip administered once daily for 13 days relative to control; assay type: functional; details: B16-F10, 312 h, time 13 day, read-out: TGI
[9] = test system: B16-F10; experiment: Immunomodulatory activity in mouse B16-F10 cells implanted in C57BL/6 mouse assessed as percentage of CD3 positive CD4 positive cells in tumor at 50 mg/kg, ip administered once daily for 13 days by flow cytometric analysis (reference value: 0.86%); assay type: functional; details: time 13 day
[10] = Toxicity in C57BL/6 mouse implanted with mouse B16-F10 cells assessed as effect on body weight at 50 mg/kg, ip administered once daily for 13 days; assay type: organism-based; details: in vivo, 312 h, time 13 day
[11] = test system: B16-F10; experiment: Immunomodulatory activity in mouse B16-F10 cells implanted in C57BL/6 mouse assessed as percentage of CD3 positive CD8 positive cells in tumor at 50 mg/kg, ip administered once daily for 13 days by flow cytometric analysis (reference value: 0.99%); assay type: functional; details: time 13 day
[12] = test system: Cell membrane; experiment: Induction of mitochondrial membrane potential loss in human Jurkat cells at 1 uM incubated for 24 hrs by JC-1 staining based flow cytometric analysis; assay type: cell membranes
[13] = test system: HepG2; experiment: Inhibition of DNA damage repair in human HepG2 cells assessed as reduction in gammaH2AX expression level at 20 uM by Western blot analysis; assay type: functional, cell-based
[14] = test system: Cell membrane; experiment: Induction of mitochondrial membrane potential loss in human Jurkat cells at 1 uM incubated for 24 hrs in presence of doxorubicin by JC-1 staining based flow cytometric analysis; assay type: cell membranes
[15] = test system: Jurkat; experiment: Induction of cell cycle arrest in human Jurkat cells assessed as increase in G2/M phase cells at 1 uM incubated for 24 hrs in presence of doxorubicin by PI staining based flow cytometric analysis; assay type: functional
[16] = test system: Jurkat; experiment: Induction of cell cycle arrest in human Jurkat cells assessed as decrease in S phase cells at 1 uM incubated for 24 hrs in presence of doxorubicin by PI staining based flow cytometric analysis; assay type: functional
[17] = Toxicity in BALB/c mouse implanted with mouse CT26 cells assessed as weight loss at 2.5 mg/kg, iv administered once a week for 21 days; assay type: organism-based; details: in vivo, 504 h, time 21 day
[18] = test system: CT26; experiment: Antitumor activity against mouse CT26 cells implanted in BALB/c mouse assessed as tumor growth inhibition at 10 mg/kg, ip administered once daily for 21 days relative to control; assay type: functional; details: CT26, 504 h, time 21 day, read-out: TGI
[19] = test system: B16-F10; experiment: Antiproliferative activity against mouse B16-F10 cells assessed as inhibition of cell growth incubated for 48 hrs by CCK-8 assay relative to control; assay type: functional
[20] = test system: CT26; experiment: Antiproliferative activity against mouse CT26 cells assessed as inhibition of cell growth incubated for 48 hrs by CCK-8 assay relative to control; assay type: functional
[21] = test system: CT26; experiment: Antitumor activity against mouse CT26 cells implanted in BALB/c mouse assessed as tumor growth inhibition at 2.5 mg/kg, iv administered once a week for 21 days relative to control; assay type: functional; details: CT26, 504 h, time 21 day, read-out: TGI
[22] = test system: Jurkat; experiment: Antiproliferative activity against human Jurkat cells assessed as inhibition of cell growth incubated for 48 hrs by CCK-8 assay relative to control; assay type: functional

| Compound | IC50 [1] [µM] | IC50 [2] [µM] | IC50 [3] [µM] | IC50 [4] [µM] | IC50 [5] [µM] | IC50 [6] [µM] | IC50 [7] [µM] | also measured |
| --- | --- | --- | --- | --- | --- | --- | --- | --- |
| Cc1cnc(-c2cnn(C)c2)cc1Nc1ncc2c(n1)N(C1CCOCC1)Cc1nncn1-2 | > 50 | 0.0261 | > 50 | > 50 |  |  |  |  |
| Cc1c(COc2cc(OCc3cccc(C#N)c3)c(CN3CCCCC3C(=O)NCCNC(=O)CCCC[C@@H]3SC[C@@H]4NC(=O)N[C@@H]43)cc2Cl)cccc1-c1ccccc1 (stereo partly specified) |  |  |  |  |  |  |  | inhibition in vivo at 50 mg/kg [8]: 48.2%; Activity [9]: 3.23%; Activity [10]: Non-Toxic; Activity [11]: 3.53% |
| Cc1cnc(-c2cnn(C)c2)cc1Nc1ncc2c(n1)N(C1CCOCC1)Cc1nnc(C)n1-2 | > 50 | 0.0214 | 5.7 | > 50 |  |  |  |  |
| Cc1nnc2n1-c1cnc(Nc3ccc4nccnc4c3)nc1N(C1CCOCC1)C2 | 19.4 | 0.0518 | 0.9 | 26.9 | 26.9 | 0.17 | 9.7 |  |
| Cc1cc2ncnn2cc1Nc1ncc2c(n1)n(C1CCOCC1)c(=O)n2C [AZD-7648] | 18.8 |  | 12.3 | 33.6 | 11.4 | 0.09 | 6.74 | Activity [12]: inactive; inhibition [13]: Active; Activity [14]: Active; Activity [15]: Active; Activity [16]: Active |
| Cc1cc2ncnn2cc1Nc1ncc2c(n1)N(C1CCOCC1)Cc1nnc(C)n1-2 | > 50 | 0.0084 | 25.2 | > 50 |  |  |  |  |
| c1cnc2cc(Nc3ncc4c(n3)N(C3CCOCC3)Cc3nncn3-4)ccc2n1 | 45.9 | 0.0715 | 4.1 | > 50 |  |  |  |  |
| COc1cccc2c1C(=O)c1c(O)c3c(c(O)c1C2=O)C[C@@](O)(C(=O)CO)C[C@@H]3O[C@H]1C[C@H](N)[C@H](O)[C@H](C)O1 [DOXORUBICIN] |  |  |  |  |  |  |  | Activity [17]: Non-Toxic; inhibition in vivo at 10 mg/kg [18]: 30.8%; inhibition (INH) [19]: 6.2%; inhibition (INH) [20]: 9.75%; inhibition in vivo at 2.5 mg/kg [21]: 25.9%; inhibition (INH) [22]: 23% |
| Cc1cc2ncnn2cc1Nc1ncc2c(n1)N(C1CCOCC1)CC(=O)N2C | 32.9 |  | 11.4 | 46.8 | 20.6 | 0.11 | 9.35 | Activity [12]: inactive; inhibition [13]: Active |

Further lines, with some results ahead:

| IC50 [1] [µM] | IC50 [2] [µM] | IC50 [3] [µM] | IC50 [4] [µM] | IC50 [5] [µM] | IC50 [6] [µM] | IC50 [7] [µM] | Compound | also measured |
| --- | --- | --- | --- | --- | --- | --- | --- | --- |
| > 50 | 0.0056 | > 50 | > 50 |  |  |  | Cc1cc2ncnn2cc1Nc1ncc2c(n1)N(C1CCOCC1)Cc1nncn1-2 |  |
| 8.9 | 0.00035 | 0.7 | 19.5 | 7.5 | 0.04 | 3.1 | Cc1cc2cccnc2cc1Nc1ncc2c(n1)N(C1CCOCC1)Cc1nccn1-2 |  |
| > 50 | 0.0294 | 15 | > 50 |  |  |  | Cc1cnc(-c2cnn(C)c2)cc1Nc1ncc2c(n1)N(C1CCOCC1)Cc1nccn1-2 |  |
| 27.6 | 0.0628 | 0.8 | 31.9 | 20.9 | 0.21 | 14.9 | c1cn2c(n1)CN(C1CCOCC1)c1nc(Nc3ccc4nccnc4c3)ncc1-2 |  |
| > 50 | 0.0036 | 9.4 | > 50 |  |  |  | Cc1cc2ncnn2cc1Nc1ncc2c(n1)N(C1CCOCC1)Cc1nccn1-2 |  |
| 5.2 | 0.00062 | 0.8 | 12.9 | 6.5 | 0.05 | 1.5 | Cc1cc2cccnc2cc1Nc1ncc2c(n1)N(C1CCOCC1)Cc1nnc(C)n1-2 |  |
| 31.2 | 0.0089 | 1.4 | 41.8 | 21.9 | 0.51 | 15.3 | COc1ccc(Nc2ncc3c(n2)N(C2CCOCC2)Cc2nccn2-3)c(C)c1 |  |
| > 50 | 0.0153 | > 50 | > 50 |  |  |  | COc1ccc(Nc2ncc3c(n2)N(C2CCOCC2)Cc2nnc(C)n2-3)c(C)c1 |  |
